Entries after “also recorded” stand apart in the source; their conditions may differ. Counter-ions that a name gives are not always drawn.
Assays:
Assay type in all cases: physicochemical
[1] = Crystal form transformation (solid form stability) of crystal polymorphs; conditions: for transformation of anhydrous crystals to monohydrate crystals: stirring at 25° C., depending on the percentage water content of the mother liquor, oxalate
Method: The Form 2 anhydrous crystals were also found to be excellent in operability such as filtration performance. Powder x-ray diffraction diagrams of the Form 1 and Form 2 anhydrous crystals of compound (1) are shown in FIGS. 1 and 2, respectively, and their diffraction diagrams based on thermal analysis are shown in FIGS. 5 and 6, respectively.
Compound (1a) was treated with anhydrous oxalic acid in 6% hydrous acetonitrile to obtain two crystal polymorphs of monohydrate crystals of the title compound represented by formula (1b) (this production method is described in Example 3 below). Powder x-ray diffraction diagrams of the Form 1 and Form 2 monohydrate crystals are shown in FIGS. 3 and 4, respectively, and their diffraction diagrams based on thermal analysis are shown in FIGS. 7 and 8, respectively.

[2] = Comparison of water solubility of crystals in hydrous toluene/acetonitrile; conditions: compared with monohydrate crystals of (1b) in the cis-form; water added to a 13% toluene/acetonitrile solution to change percentage water content
Method: Water was added to a 13% toluene/acetonitrile solution to change the percentage water content to compare water solubility between the monohydrate crystals of the compound represented by formula (1b) and the monohydrate crystals of the trans-isomer compound represented by formula (1b-trans).

[3] = Hygroscopicity of crystal polymorphs; conditions: among the crystal polymorphs of anhydrous crystals of compound (1)

CN(C)C(=O)[C@H]1CC[C@H](N)[C@H](NC(=O)OC(C)(C)C)C1 [Form 1 anhydrous crystals, tert-butyl {(1R,2S,5S)-2-amino-5-[(dimethylamino)carbonyl]cyclohexyl}carbamate oxalate]
transformation of anhydrous crystals to monohydrate crystals [1]: transformed to monohydrate crystals

CN(C)C(=O)[C@H]1CC[C@H](N)[C@H](NC(=O)OC(C)(C)C)C1 [Form 1 monohydrate crystals, tert-butyl {(1R,2S,5S)-2-amino-5-[(dimethylamino)carbonyl]cyclohexyl}carbamate oxalate monohydrate]
crystal transformation when left standing ([1]; left at room temperature for approximately 2 hours): transformed to Form 2 monohydrate crystals

CN(C)C(=O)[C@H]1CC[C@@H](N)[C@H](NC(=O)OC(C)(C)C)C1 [(1b-trans)]
water solubility [2]: highly water-soluble; also recorded: more water-soluble

CN(C)C(=O)[C@H]1CC[C@H](N)[C@H](NC(=O)OC(C)(C)C)C1 [Form 2 anhydrous crystals, tert-butyl {(1R,2S,5S)-2-amino-5-[(dimethylamino)carbonyl]cyclohexyl}carbamate oxalate]
hygroscopicity [3]: much less hygroscopic
transformation of anhydrous crystals to monohydrate crystals [1]: hardly transformed to monohydrate crystals
